Consider two molecules from patent US9802903B2, “Process for preparing antiviral compound” (AbbVie Inc., priority 2010, dated 2017).

This data set can be described thus: Ames test (mutagenic potential). The class given is cell-based. As to conditions: genotoxic testing of process compounds. An excerpt: As discussed above, compound I (including salts thereof) is useful as a drug for treating HCV in humans. Thus, it is important that it be so prepared that it is safe for administration to humans. As one skilled in the art would understand, one aspect of drug safety is the minimization of the amount of genotoxic impurities that are associated with the production of a given drug, and, can therefore also be present in the drug product. A couple of well established tests are used to measure the genotoxicity of chemical compounds. One such test is the computer-based Derek analysis, and the other—the Ames test, which is a biological assay that assesses the mutagenic potential of chemical compounds.

In the case of `Nc1ccc(I)cc1` [Compound 1a, 4-iodoaniline], the Ames test result is reported as “negative”.

Turning to `CS(=O)(=O)Nc1ccc(I)cc1` [Compound 2a, N-(4-iodophenyl)methanesulfonamide], the Ames test result is reported as “negative”.
